Assay results taken from PubChem BioAssay (NCI).
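Tested at 5 concentrations; 48 h exposure; 96-well plates; endpoints linearly interpolated, else capped at highest concentration. At the GI50, growth is halved. At the TGI there is no net growth.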

Assays:
Experiment in all cases: inhibition of tumour cell growth, NCI panel, 48 h
A498 renal = system: A498 renal
IGROV1 ovarian = system: IGROV1 ovarian
K-562 leukemia = system: K-562 leukemia
MALME-3M melanoma = system: MALME-3M melanoma
MDA-MB-231 breast = system: MDA-MB-231 breast
SK-MEL-5 melanoma = system: SK-MEL-5 melanoma
SK-OV-3 ovarian = system: SK-OV-3 ovarian
SNB-19 CNS = system: SNB-19 CNS
SNB-75 CNS = system: SNB-75 CNS
UACC-257 melanoma = system: UACC-257 melanoma

Row | SMILES | GI50 (A498 renal) | TGI (A498 renal) | GI50 (IGROV1 ovarian) | TGI (IGROV1 ovarian) | GI50 (K-562 leukemia) | TGI (K-562 leukemia) | GI50 (MALME-3M melanoma) | TGI (MALME-3M melanoma) | GI50 (MDA-MB-231 breast) | TGI (MDA-MB-231 breast) | GI50 (SK-MEL-5 melanoma) | TGI (SK-MEL-5 melanoma) | GI50 (SK-OV-3 ovarian) | TGI (SK-OV-3 ovarian) | GI50 (SNB-19 CNS) | TGI (SNB-19 CNS) | GI50 (SNB-75 CNS) | TGI (SNB-75 CNS) | GI50 (UACC-257 melanoma) | TGI (UACC-257 melanoma)
1 | Oc1ccc(-c2nc3ccc4[nH]ncc4c3c3c2CCCC3)c(F)c1 | 2.25 µM | 6.51 µM | 2.8 µM | 12.4 µM | 2.71 µM | 21 µM | 3.36 µM | 12.1 µM | 2.79 µM | 10.5 µM | 2.55 µM | 9.26 µM | 0.765 µM | 2.75 µM | 3.59 µM | 14.2 µM | 2.02 µM | 7.05 µM | 1.84 µM | 5.34 µM
2 | CCN1C(=O)CCCc2c1ccc(Nc1ncc(Cl)c(NC3[C@@H](C(N)=O)[C@@H]4C=C[C@H]3C4)n1)c2OC (stereo not given in full) | 0.529 µM | 2.65 µM | 1.46 µM | 3.96 µM | 2.16 µM | > 74.6 µM | 0.998 µM | 3.4 µM | 1.95 µM | 14.4 µM | 1.45 µM | 4.82 µM | 2.39 µM | 7.74 µM | 1.94 µM | 14 µM | 0.619 µM | 6.23 µM | 0.839 µM | 4.34 µM
3 | COc1cccc(/C=N/NC(=S)NC2CC3CCC2C3)c1O (stereo not given) | 3.18 µM | 12.9 µM | 10 µM | 35.1 µM | 7.62 µM | > 100 µM | 5.65 µM | 20 µM | 4.88 µM | 21.9 µM | 13.9 µM | 77.4 µM | 4.46 µM | 14.4 µM | 14.6 µM | 35.9 µM | 1.58 µM | 5.47 µM | 15.1 µM | 38.7 µM
4 | Cc1ccc(C(NC(=O)c2ccccc2)c2ccc3cccnc3c2O)cc1 (stereo not given) | 0.376 µM | 7.88 µM | 0.352 µM | 4.95 µM | 0.349 µM | 90 µM | 0.441 µM | 12.3 µM | 0.315 µM | 22.4 µM | 0.201 µM | 0.439 µM | 0.474 µM | 30.7 µM | 0.492 µM | > 100 µM | 0.927 µM | 60 µM | 0.293 µM | 2.58 µM
